A short description of series [1]: Acute toxicity test (LD50). As to conditions: mouse, in vivo, male mice.
The test system of the next series is NF-κB. Nature of the series: Gel shift assay: inhibition of NF-κB binding activation in U1 cells. It is filed as cell-based, human. As to conditions: for inhibition at 0.1 µg/mL / inhibition at 1 µg/mL: Homo sapiens. Here is the method:
Inhibition Action on NF-κB Binding Activation
In order to examine the action of a test compound cepharanthine to inhibit NF-κB binding activation, U1 [a cell strain derived from HIV-1 (HIV type 1) latent infection human monocyte] cells were stimulated or not stimulated with phorbol 12-myristate 13-acetate (PMA) in the presence or absence of the test compound, and the following assay was carried out using a nucleoprotein extract obtained from the resulting cells.
Gel shift assay was carried out using an NF-κB probe of HIV-1. A double-stranded DNA fragment of an NF-κB site-like sequence, 5'-AGTTGAGGGGACTTTCCCAGGC-3' from the transcription initiation point, was used as the NF-κB probe of HIV-1. The 5'-terminus of the probe was radiation-labeled with ^32 p in the usual way using [γ-^32 P]ATP and polynucleotide kinase. […] At the same time, a sample in which a large quantity of non-labeled probe was added to the reaction solution was prepared and the same reaction was carried out as a competitive assay. Thereafter, the ^32 P-labeled NF-κB probe was added thereto to carry out 20 minutes of binding reaction at room temperature. After the reaction, 4% unmodified polyacrylamide gel electrophoresis was carried out in order to separate the DNA-NF-κB complex from free oligonucleotide. The gel was subjected to autoradiography, and NF-κB in the nucleoprotein extract was determined by an image analyzer (BIO-RAD, Model GS-700 Imaging Densitometer).
The action of the test compound to inhibit activation of NF-κB binding by PMA stimulation of U1 cells (inhibition ratio, %) is shown in Table 1.
V3: Cepharanthine control; reaction (2.5 hours) of U1 cells in the
presence of 0.1 μg/ml of cepharanthine
V4: Cepharanthine control; reaction (2.5 hours) of U1 cells in the
presence of 1 μg/ml of cepharanthine
V6: Reaction (2 hours) of U1 cells in the presence of 0.1 μg/ml of
cepharanthine + stimulation (0.5 hour) with 10 ng/ml of PMA
V7: Reaction (2 hours) of U1 cells in the presence of 1 μg/ml of
**: V6, V7, V8 and V9 vs. V5

The next series relates to HIV-1 LTR. As to the kind of experiment: HIV-1 LTR CAT assay: inhibition of HIV-1 LTR transcription activity in HeLa cells. It is filed as cell-based. As to conditions: 48 hours; for % Inhibition: vs. V3 (PMA). As to the method: Inhibition action on HIV-1 LTR transcription activity
In order to examine effect of a test compound cepharanthine on the HIV-1 transcription activity, CAT assay was carried out by the following method.
A plasmid in which chloramphenicol acetyltransferase (CAT) gene has been linked to the downstream of HIV-1 LTR gene was introduced by lipofection into HeLa cells adjusted to a density of 1×10^6 cells, and the resulting cells were cultured in the presence or absence of the test compound and phorbol 12-myristate 13-acetate (PMA). After 48 hours of the culturing, the cells were collected and washed to prepare a cell extract using a freeze-thawing method. The thus prepared cell extract was allowed to react with acetyl CoA and [^14 C]-labeled chloramphenicol (CM), and the thus formed acetyl[^14 C]CM was separated by a thin layer chromatography, subjected to autoradiography and then […] measured using an image analyzer (BIO-RAD, Model GS-700 Imaging Densitometer).
V4: HeLa cells were cultured in the presence of cepharanthine (0.1
μg/ml) + PMA (10 ng/ml)
V5: HeLa cells were cultured in the presence of cepharanthine (1 μg/ml

Setting [2] is: 0.1 μg/ml, 2 hours + PMA 10 ng/ml, 0.5 hour.
The mark [3] stands for this setting: 1 μg/ml, 2 hours + PMA 10 ng/ml, 0.5 hour.

The structures appear in SMILES notation.

In series [1] (intravenous), `COc1cc2c3cc1Oc1c(OC)c(OC)cc4c1[C@@H](Cc1ccc(O)c(c1)Oc1ccc(cc1)C[C@@H]3N(C)CC2)N(C)CC4` [berbamine] registered an LD50 of 18.8 mg/kg.

In series [1] (intravenous), `COc1cc2c3cc1Oc1c4c(cc5c1[C@H](Cc1ccc(cc1)Oc1cc(ccc1O)C[C@H]3N(C)CC2)N(C)CC5)OCO4` [cepharanoline] displayed an LD50 of 34.3 mg/kg.

In the case of `COc1ccc2cc1Oc1ccc(cc1)C[C@H]1c3c(cc4c(c3Oc3cc5c(cc3OC)CCN(C)[C@@H]5C2)OCO4)CCN1C` [cepharanthine], the Area with NF-κB (setting [2]) stood at 70.45 mm × mm; with NF-κB (0.1 μg/ml, 2.5 hours, no PMA) it was 70.53 mm × mm; in the series with NF-κB (setting [3]), 50.63 mm × mm; in the series on NF-κB (1 μg/ml, 2.5 hours, no PMA), 69.15 mm × mm; with HIV-1 LTR (0.1 μg/ml + PMA (10 ng/ml)) it was 54.31 mm × mm; with HIV-1 LTR (1 μg/ml + PMA (10 ng/ml)) it was 41.00 mm × mm. The “Average (OD)” value is given as 0.491 OD with NF-κB (setting [2]); 0.447 OD in the series on NF-κB (0.1 μg/ml, 2.5 hours, no PMA); 0.490 OD in the series on NF-κB (setting [3]); 0.442 OD in the series on NF-κB (1 μg/ml, 2.5 hours, no PMA); 0.892 OD in the series with HIV-1 LTR (0.1 μg/ml + PMA (10 ng/ml)); 0.867 OD with HIV-1 LTR (1 μg/ml + PMA (10 ng/ml)). Moreover, the Labeled amount with NF-κB (setting [2]) was 34.59 OD × mm × mm; in the series on NF-κB (0.1 μg/ml, 2.5 hours, no PMA), 31.53 OD × mm × mm; in the series with NF-κB (setting [3]) it was 24.81 OD × mm × mm; in the series on NF-κB (1 μg/ml, 2.5 hours, no PMA), 30.56 OD × mm × mm; in the series with HIV-1 LTR (0.1 μg/ml + PMA (10 ng/ml)), 48.44 OD × mm × mm; in the series on HIV-1 LTR (1 μg/ml + PMA (10 ng/ml)), 35.55 OD × mm × mm. For the same compound, the inhibition at 0.1 µg/mL stood at 24.7% in the series on NF-κB (0.1 μg/ml, 2 hours + PMA 10 ng/ml, 0.5 hour, vs. V5 (PMA)) and 10.9% in the series with NF-κB (0.1 μg/ml, 2.5 hours, no PMA, vs. V2 (untreated U1 cells)). In addition, the inhibition at 1 µg/mL in the series with NF-κB (1 μg/ml, 2 hours + PMA 10 ng/ml, 0.5 hour, vs. V5 (PMA)) turned out to be 46%; in the series with NF-κB (1 μg/ml, 2.5 hours, no PMA, vs. V2 (untreated U1 cells)), 13.7%. For the same compound, the 50% lethal dose (LD50) in series [1] (intravenous) is 47 mg/kg; in series [1] (oral), 3410 mg/kg. Besides, the “% Inhibition” value with HIV-1 LTR (0.1 μg/ml + PMA (10 ng/ml)) was 33.1%; in the series on HIV-1 LTR (1 μg/ml + PMA (10 ng/ml)) it was 50.9%.

`COc1cc2c3c(c1OC)Oc1ccc(cc1)C[C@@H]1c4c(cc(OC)c(OC)c4Oc4ccc(cc4)C[C@H]3N(C)CC2)CCN1C` [cycleanine] yielded a median lethal dose (LD50) in series [1] (intravenous) of 62.5 mg/kg.

Take `COc1ccc2cc1Oc1ccc(cc1)C[C@H]1c3c(cc(OC)c(O)c3Oc3cc4c(cc3OC)CCN(C)[C@@H]4C2)CCN1C` [homoaromoline]: the LD50 in series [1] (intravenous) was 42.4 mg/kg.

The compound `COc1ccc2cc1Oc1ccc(cc1)C[C@H]1c3cc(c(OC)cc3CCN1C)Oc1c(OC)c(OC)cc3c1[C@@H](C2)N(C)CC3` [isotetrandrine] returned a 50% lethal dose (LD50) in series [1] (intravenous) of 32.5 mg/kg.

Source of the values: patent US6123943A, “NF-KB activity inhibitor” (Kaken Shoyaku Co., Ltd., priority 1997, dated 2000).
